# Laboratory results: patent US9598446B2, “Amino compounds for treatment of complement mediated disorders” (priority 2014, dated 2017)
# pIC50: −log10 of the molar value.
# Biological target: Human factor D (Homo sapiens (Human), UniProt P00746)
# Assay: Human Factor D Assay
# Assay type: biochemical
# Conditions: not given
# Sequence of Human factor D (P00746 26-253): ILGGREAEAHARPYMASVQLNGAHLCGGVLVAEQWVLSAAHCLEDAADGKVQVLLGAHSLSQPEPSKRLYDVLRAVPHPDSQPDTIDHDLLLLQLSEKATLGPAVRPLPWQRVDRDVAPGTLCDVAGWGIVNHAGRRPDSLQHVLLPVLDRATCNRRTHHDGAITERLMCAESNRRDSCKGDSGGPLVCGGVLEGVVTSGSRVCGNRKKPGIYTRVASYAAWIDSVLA
row,SMILES,pIC50
1,"CC(=O)c1cn(CC(=O)N2C[C@H](F)C[C@H]2C(=O)Nc2c[nH]nc2-c2ccc(Cl)cc2Cl)c2ccc(Nc3cncnc3)cc12 [Compound 55, (2S,4R)-1-(2-(3-acetyl-5-(pyrimidin-5-ylamino)-1H-indol-1-yl)acetyl)-N-(3-(2,4-dichlorophenyl)-1H-pyrazol-4-yl)-4-fluoropyrrolidine-2-carboxamide]",5.00 to 6.00
2,"CC(=O)c1cn(CC(=O)N2C[C@H](F)C[C@H]2C(=O)NC2CCc3c(F)ccc(F)c32)c2ccc(Nc3cncnc3)cc12 (stereo partly drawn) [Compound 51, (2S,4R)-1-(2-(3-acetyl-5-(pyrimidin-5-ylamino)-1H-indol-1-yl)acetyl)-N-(4,7-difluoro-2,3-dihydro-1H-inden-1-yl)-4-fluoropyrrolidine-2-carboxamide]",5.00 to 6.00
3,"CC(=O)c1cn(CC(=O)N2C[C@H](F)C[C@H]2C(=O)NCc2cccc(Cl)c2F)c2cc(N(CC(=O)N3C[C@H](F)C[C@H]3C(=O)NCc3cccc(Cl)c3F)S(C)(=O)=O)ccc12 [Compound 1, (2S,4R)-1-(2-(N-(3-acetyl-1-(2-((2S,4R)-2-(3-chloro-2-fluorobenzyl-carbamoyl)-4-fluoropyrrolidin-1-yl)-2-oxoethyl)-1H-indol-6-yl)methylsulfonamido)acetyl)-N-(3-chloro-2-fluorobenzyl)-4-fluoropyrrolidine-2-carboxamide]",5.00 to 6.00

# Same assay, conditions: human factor D 80 nM, substrate Z-L-Lys-SBz1 and DTNB 100 μM each, pH 7.5; read-out: IC50
row,SMILES,pIC50
1,"CC(=O)c1cn(CC(=O)N2C[C@H](F)C[C@H]2C(=O)Nc2cncc(Cl)n2)c2ccc(Nc3cncnc3)cc12 [Compound 33, (2S,4R)-1-(2-(3-acetyl-5-(pyrimidin-5-ylamino)-1H-indol-1-yl)acetyl)-N-(6-chloropyrazin-2-yl)-4-fluoropyrrolidine-2-carboxamide]",> 6.00
2,"CC(=O)c1cn(CC(=O)N2C[C@H](F)C[C@H]2C(=O)Nc2cccc(Br)n2)c2ccc(Nc3cncnc3)cc12 [Compound 4, (2S,4R)-1-(2-(3-acetyl-5-(pyrimidin-5-ylamino)-1H-indol-1-yl)acetyl)-N-(6-bromopyridin-2-yl)-4-fluoropyrrolidine-2-carboxamide]",> 6.00
3,"CC(=O)c1cn(C(=O)CN2C[C@H](F)C[C@H]2C(=O)Nc2nnc(-c3ccc(Cl)c(Cl)c3)s2)c2ccc(Nc3cncnc3)cc12 [Compound 39, (2S,4R)-1-(2-(3-acetyl-5-(pyrimidin-5-ylamino)-1H-indol-1-yl)-2-oxoethyl)-N-(5-(3,4-dichlorophenyl)-1,3,4-thiadiazol-2-yl)-4-fluoropyrrolidine-2-carboxamide]",< 5.00
4,"NC(=O)c1nn(CC(=O)N2C[C@H](F)C[C@H]2C(=O)Nc2cccc(-c3ccccc3Cl)c2F)c2ccc(Nc3cnc(C(F)(F)F)nc3)cc12 [Compound 14, 1-(2-((2S,4R)-2-(2′-chloro-2-fluorobiphenyl-3-ylcarbamoyl)-4-fluoropyrrolidin-1-yl)-2-oxoethyl)-5-(2-(trifluoromethyl)pyrimidin-5-ylamino)-1H-indazole-3-carboxamide]",> 6.00
5,"NC(=O)c1nn(CC(=O)N2C[C@H](F)C[C@H]2C(=O)Nc2cccc(-c3ccccc3Cl)c2F)c2ccc(Nc3cccnn3)cc12 [Compound 9, 1-(2-((2S,4R)-2-(2′-chloro-2-fluorobiphenyl-3-ylcarbamoyl)-4-fluoropyrrolidin-1-yl)-2-oxoethyl)-5-(pyridazin-3-ylamino)-1H-indazole-3-carboxamide]",> 6.00
6,"CC(=O)c1cn(CC(=O)N2C[C@H](F)C[C@H]2C(=O)Nc2ccc3ncsc3c2)c2ccc(Nc3cncnc3)cc12 [Compound 56, (2S,4R)-1-(2-(3-acetyl-5-(pyrimidin-5-ylamino)-1H-indol-1-yl)acetyl)-N-(benzo[d]thiazol-6-yl)-4-fluoropyrrolidine-2-carboxamide]",> 6.00
7,"CC(=O)c1cn(CC(=O)N2C[C@H](F)C[C@H]2C(=O)Nc2cc(C)nc3nc(C(F)(F)F)nn23)c2ccc(Nc3cncnc3)cc12 [Compound 41, (2S,4R)-1-(2-(3-acetyl-5-(pyrimidin-5-ylamino)-1H-indol-1-yl)acetyl)-4-fluoro-N-(5-methyl-2-(trifluoromethyl)-[1,2,4]triazolo[1,5-a]pyrimidin-7-yl)pyrrolidine-2-carboxamide]",< 5.00
